Literature values in PubChem BioAssay AID1259410 (Chemical Carcinogenesis Research Information System (CCRIS), 2018).

Test system: rodent tumor promotion studies, tumor incidence
Test: CCRIS tumor promotion studies
Settings: Route [Carcinogen]: DERMAL, Route [Promoter]: DERMAL, Species: MOUSE

## CCCCCCCCCCCCCC(=O)O[C@@H]1[C@@H](C)[C@@]2(O)[C@@H](C=C(CO)C[C@]3(O)C(=O)C(C)=C[C@@H]23)[C@@H]2C(C)(C)[C@]12OC(C)=O
Carcinogen: 15,16-DIHYDRO-11-METHYLCYCLOPENTA[A]PHENANTHREN-17-ONE, 892-17-1, Doses [Carcinogen]: 1632 NMOL IN 100 µL TOLUENE ONCE, Doses [Promoter]: 0, 2 UG IN 50 µL ACETONE 2/WK FOR 19 WK BEGINNING 1 WK POST CARCINOGEN TREATMENT (STUDY DURATION: 20 WK), Strain/Sex: SKH/HR-1/MALE
  outcome: skin: papilloma
Carcinogen: (+/-)-R,11-T-12-DIHYDROXY-T-13,14-EPOXY-11,12,13,14-TETRAHYDRODIBENZO[A,L]PYRENE, 159812-26-7, Doses [Carcinogen]: 1.33, 4, 12 NMOL IN 100 ML ACETONE ONCE, Doses [Carcinogen]: 1.33, 4, 12 NMOL IN 100 ML ACETONE ONCE, Doses [Promoter]: 1.62 NMOL IN 100 ML ACETONE 2/WK FOR 28 WK BEGINNING 1 WK POST CARCINOGEN DOSE (STUDY DURATION: 30 WK), Strain/Sex: SENCAR/FEMALE
  outcome: skin: tumor
Carcinogen: (+/-)-R-11,T-12-DIHYDROXY-C-13,14-EPOXY-11,12,13,14-TETRAHYDRODIBENZO[A,L]PYRENE, 159812-27-8, Doses [Carcinogen]: 1.33, 4, 12 NMOL IN 100 ML ACETONE ONCE, Doses [Carcinogen]: 1.33, 4, 12 NMOL IN 100 ML ACETONE ONCE, Doses [Promoter]: 1.62 NMOL IN 100 ML ACETONE 2/WK FOR 28 WK BEGINNING 1 WK POST CARCINOGEN DOSE (STUDY DURATION: 30 WK), Strain/Sex: SENCAR/FEMALE
  outcome: skin: tumor
Carcinogen: (+/-)-TRANS-1,2-DIHYDRO-1,2-DIHYDROXY-5-METHYLCHRYSENE, 96741-20-7, Doses [Carcinogen]: 33, 100 NMOL IN 0.1 ML ACETONE ONCE, Doses [Promoter]: 2.5 UG IN 0.1 ML ACETONE 3/WK FOR 25 WK BEGINNING 10 D POST INITIATION (STUDY DURATION: 27 WK), Strain/Sex: CD-1/FEMALE
  outcome: skin: tumors
Carcinogen: (+/-)-TRANS-1,2-DIHYDROXY-ANTI-3,4-EPOXY-1,2,3,4-TETRAHYDRO-5-METHYLCHRYSENE, 96790-39-5, Doses [Carcinogen]: 33, 100 NMOL IN 0.1 ML ACETONE ONCE, Doses [Promoter]: 2.5 UG IN 0.1 ML ACETONE 3/WK FOR 25 WK BEGINNING 10 D POST INITIATION (STUDY DURATION: 27 WK), Strain/Sex: CD-1/FEMALE
  outcome: skin: tumors
Carcinogen: (+/-)-TRANS-7,8-DIHYDRO-7,8-DIHYDROXY-5-METHYLCHRYSENE, 96741-21-8, Doses [Carcinogen]: 33, 100 NMOL IN 0.1 ML ACETONE ONCE, Doses [Promoter]: 2.5 UG IN 0.1 ML ACETONE 3/WK FOR 25 WK BEGINNING 10 D POST INITIATION (STUDY DURATION: 27 WK), Strain/Sex: CD-1/FEMALE
  outcome: skin: tumors
Carcinogen: ANTI-1,2-DIHYDROXY-3,4-EPOXY-1,2,3,4-TETRAHYDRO-5,6-DIMETHYLCHRYSENE, 139347-89-0, Doses [Carcinogen]: 33, 100, 400 NMOL IN 0.1 ML ACETONE ONCE, Doses [Carcinogen]: 33, 100, 400 NMOL IN 0.1 ML ACETONE ONCE, Doses [Promoter]: 0, 2.5 UG IN 0.1 ML ACETONE 3/WK FOR 20 WK BEGINNING 10 D POST CARCINOGEN DOSE (STUDY DURATION: 20 WK), Strain/Sex: CD-1/FEMALE
  outcome: skin: tumor
Carcinogen: ANTI-4,3-DIHYDROXY-2,1-EPOXY-4,3,2,1-TETRAHYDROBENZO[C]PHENANTHRENE, 75443-72-0, Doses [Carcinogen]: 100, 400 NMOL IN 0.1 ML ACETONE ONCE, Doses [Promoter]: 0, 2.5 UG IN 0.1 ML ACETONE 3/WK FOR 20 WK BEGINNING 10 D POST CARCINOGEN DOSE (STUDY DURATION: 20 WK), Strain/Sex: CD-1/FEMALE
  outcome: skin: tumor
Carcinogen: BENZO[A]PYRENE, 50-32-8, Doses [Carcinogen]: 0, 2.52, 12.6, 50.5, 101 UG IN ACETONE ONCE, Doses [Carcinogen]: 0, 2.52, 12.6, 50.5, 101 UG IN ACETONE ONCE, Doses [Promoter]: 0, 2 UG IN ACETONE 2/WK FOR 52 WK (STUDY DURATION: 1 YR), Strain/Sex: SENCAR/FEMALE
  outcome: skin: papilloma, carcinoma
Carcinogen: BENZO[A]PYRENE, 50-32-8, Doses [Carcinogen]: 0, 2.52, 12.6, 50.5, 101 UG IN ACETONE ONCE, Doses [Carcinogen]: 0, 2.52, 12.6, 50.5, 101 UG IN ACETONE ONCE, Doses [Promoter]: 0, 2 UG IN ACETONE 2/WK FOR 52 WK (STUDY DURATION: 1 YR), Strain/Sex: SENCAR/MALE
  outcome: skin: papilloma, carcinoma
Carcinogen: BENZO[A]PYRENE, 50-32-8, Doses [Carcinogen]: 20, 100 NMOL IN 100 µL ACETONE ONCE, Doses [Promoter]: 3.24 NMOL/100 µL ACETONE 2/WK BEGINNING 2 WK POST CARCINOGEN DOSE AND CONTINUING FOR 24 WK (STUDY DURATION: 27 WK), Strain/Sex: SENCAR/FEMALE
  outcome: skin: tumor
Carcinogen: BENZO[A]PYRENE, 50-32-8, Doses [Carcinogen]: 33.3, 100, 300 NMOL IN 100 µL ACETONE ONCE, Doses [Carcinogen]: 33.3, 100, 300 NMOL IN 100 µL ACETONE ONCE, Doses [Promoter]: 3.24 NMOL/100 µL ACETONE ONCE 1 WK POST CARCINOGEN DOSE THEN 2/WK BEGINNING 3 WK LATER AND CONTINUING FOR 11 WK (STUDY D, Strain/Sex: SENCAR/FEMALE
  outcome: skin: tumor
